Experimental data taken from patent publication US12606533B2, “3-phenylpropylamine derivative” (DAIICHI SANKYO COMPANY, LIMITED, priority 2023, dated 2026).
Structures can show the parent of a compound that is named as a salt.

Tests used:
CYP11A1 = test: Changes in SF1 target gene expression for NCI-H295R: CYP11A1 mRNA (qPCR); format: cell-based; conditions: Homo sapiens, NCI-H295R cells, 24 hr
Procedure: (§1) NCI-H295R cells were cultured in a 5% CO2 incubator at 37° C. using DMEM/F12 medium (Thermo Fisher Scientific Inc.) containing 2.5% Nu-Serum (registered trademark) Growth Medium Supplement (Corning) and 1% Corning ITS+ Premix Universal Culture Supplement (Corning). The DMSO solution of each compound was serially diluted with DMSO using a D300e Digital Dispenser (TECAN), and the compounds were added to a 96-well plate (FALCON). NCI-H295R cells were seeded at 1×10^4 cells/50 μL/well on the 96-well plate containing the compounds added thereto, and cultured for 24 hr in a 5% CO2 incubator at 37° C. The final DMSO concentration in the medium was adjusted to 0.1% (v/v) in all cases, and the concentration range of the compounds was set to 1000 nM to 0.32 nM with a common ratio […]. After the completion of culture, the medium was discarded, 50 μL/well of chilled D-PBS (Sigma Aldrich) was added to wash the cells, and D-PBS was discarded. After washing, 25 μL/well of Cells-to-CT (registered trademark) Bulk Lysis Reagents (Thermo Fisher Scientific, Inc.) was added to the wells, the mixture was stirred for 5 min with a plate mixer, and 2.5 μL/well of the reaction quenching liquid was added to prepare cell lysate. The cell lysate was dispensed into a 96-well plate (Corning) at 10 μL/well, and 40 μL/well of Cells-to-CT Bulk RT Reagents (Thermo Fisher Scientific, Inc.) was added. A reverse transcription reaction was performed at 37° C. for 50 min using a thermal cycler, and the reverse transcriptase was inactivated by heating at 95° C. for 5 min, and then stored at 10° C. PrimeTime (registered trademark) Gene Expression Master Mix (Integrated DNA Technologies), the target genes CYP11A1, CYP17A1, CYP21A2, or STAR, and the control gene ACTB PrimeTime (registered trademark) qPCR Probe Assays (Integrated DNA Technologies), and Nuclease free water were mixed at a ratio of 20:1:1:10 to prepare a PrimerProbe mix. The prepared PrimerProbe mix was added to a 384-well plate at 8 μL/well, and the cDNA obtained by reverse transcription was added at 2 μL/well. Real-Time PCR was performed under fast cycling conditions (95° C. for 3 min, followed by 40 cycles of 95° C. for 5 seconds and 62° C. for 30 seconds) to measure the fluorescent signal. The obtained data was analyzed using GraphPad Prism9 (GraphPad Software Inc.) to calculate the concentration (IC50 value) that reduces the mRNA expression level by 50%. The IC50 values (unit: nM) for CYP11A1, CYP17A1, CYP21A2, and STAR, of the compounds corresponding to each Example number are shown in Table 94.

CYP21A2 = test: Changes in SF1 target gene expression for NCI-H295R: CYP21A2 mRNA (qPCR); format: cell-based; conditions: Homo sapiens, NCI-H295R cells, 24 hr
Procedure: as §1

STAR = test: Changes in SF1 target gene expression for NCI-H295R: STAR mRNA (qPCR); format: cell-based; conditions: Homo sapiens, NCI-H295R cells, 24 hr
Procedure: as §1

SF1-LBD = SF1-LBD (Homo sapiens, UniProt Q13285); test: Inhibitory activity against binding of DAX1 to SF1-LBD (AlphaLISA); conditions: inhibition of binding of DAX1 peptide to His-SF1-LBD, read-out: cell-free SF1 IC50
Procedure: The binding activity of each compound to the SF-1 ligand binding domain (LBD) was evaluated using the binding inhibitory activity of each compound against binding of DAX1 to SF1-LBD as an index. 100 nM His-SF1-LBD, 2 nM Biotin-DAX1 peptide (Biotin-[…]-NH2) and each compound (8-point i1 dilution series with common ratio 2 from final concentration 2 μM) were mixed in assay buffer [25 mM HEPES (pH 7.5), 100 mM NaCl, 0.1% BSA, 0.01% CHAPS, 1 mM DTT] and reacted at room temperature for 30 min. Anti-6×His AlphaLISA Acceptor beads and Streptavidin-coated AlphaScreen Donor beads were mixed to a final concentrations of 5 μg/ml and 10 μg/ml, respectively, and reacted in the dark at room temperature for 60 min. AlphaLISA signals were detected using a multimode plate reader (EnVision Xcite, PerkinElmer). The binding rate of DAX1 peptide to SF1 was calculated from the luminescence amount (C) of the compound-free group and the luminescence amount (T) of the compound-added group, based on the following formula.
The DAX1 peptide binding rate at each concentration was analyzed using GraphPad Prism6 (GraphPad Software Inc.) to calculate the concentration (IC50 value) of each compound that inhibits 50% of the binding of DAX1 to SF1-LBD.

CYP17A1 = test: Changes in SF1 target gene expression for NCI-H295R: CYP17A1 mRNA (qPCR); format: cell-based; conditions: Homo sapiens, NCI-H295R cells, 24 hr
Procedure: as §1

Chain of SF1-LBD (Q13285 222-459 limits assumed): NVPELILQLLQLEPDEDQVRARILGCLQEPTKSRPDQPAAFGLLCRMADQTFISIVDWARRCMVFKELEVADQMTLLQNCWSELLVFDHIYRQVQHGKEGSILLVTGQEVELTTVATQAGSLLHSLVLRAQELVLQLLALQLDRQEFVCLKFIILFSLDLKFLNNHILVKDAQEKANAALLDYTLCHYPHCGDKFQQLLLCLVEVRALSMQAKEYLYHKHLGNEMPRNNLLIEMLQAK

IC50 (CYP11A1) [nM]	IC50 (CYP21A2) [nM]	IC50 (STAR) [nM]	IC50 (SF1-LBD) [nM]	IC50 (CYP17A1) [nM]	SMILES
4.4	9.8	19	30	137	COc1ccc([C@]2(CCN(Cc3ccc(Oc4ccc(C(C)C(=O)O)cc4)cc3)CC(C)(C)C(F)(F)F)CCOC(C)(C)C2)cc1 (stereo partly drawn) [Example P3, 2-[4-(4-{[{2-[(4R)-4-(4-Methoxyphenyl)-2,2-dimethyltetrahydro-2H-pyran-4-yl]ethyl}(3,3,3-trifluoro-2,2-dimethylpropyl)amino]methyl}phenoxy)phenyl]propanoic acid]
3.3	4.3	6.2	27	28	CCO[C@@H](Cc1ccc(Oc2ccc(CN(CC[C@@]3(c4ccc(OC)cc4)CCOC(C)(C)C3)CC(C)(C)C(F)(F)F)cc2)cc1)C(=O)O [Example R3, (2S)-2-Ethoxy-3-[4-(4-{[{2-[(4R)-4-(4-methoxyphenyl)-2,2-dimethyltetrahydro-2H-pyran-4-yl]ethyl}(3,3,3-trifluoro-2,2-dimethylpropyl)amino]methyl}phenoxy)phenyl]propanoic acid]
35	82	75	36	211	COc1ccc(C2(CCN(Cc3ccc(O[C@H]4CC[C@H](C(=O)O)CC4)cc3)c3ncc(F)cn3)CCOC(C)(C)C2)cc1 (stereo partly drawn) [Example O2, Trans-4-(4-{[(5-fluoropyrimidin-2-yl) {2-[4-(4-methoxyphenyl)-2,2-dimethyltetrahydro-2H-pyran-4-yl]ethyl}amino]methyl}phenoxy)cyclohexanecarboxylic acid]
17	33	65	19	189	COc1ccc([C@]2(CCN(Cc3ccc(O[C@H]4CC[C@H](C(=O)O)CC4)cc3)C(=O)C(C)(C)C)CCOC(C)(C)C2)cc1 [Example E2, Trans-4-(4-{[(2,2-dimethylpropanoyl) {2-[(4R)-4-(4-methoxyphenyl)-2,2-dimethyltetrahydro-2H-pyran-4-yl]ethyl)amino]methyl}phenoxy)cyclohexanecarboxylic acid]
7.8	13	26	< 16	70	COc1ccc(C2(CCN(Cc3ccc(O[C@H]4CC[C@H](CC(=O)O)CC4)c(Cl)c3)C(=O)C(C)(C)C)CCOC(C)(C)C2)cc1 (stereo partly drawn) [Example C8, [Trans-4-(2-chloro-4-{[(2,2-dimethylpropanoyl) {2-[4-(4-methoxyphenyl)-2,2-dimethyltetrahydro-2H-pyran-4-yl]ethyl}amino]methyl}phenoxy)cyclohexyl]acetic acid]
10	24	54	21	140	COc1ccc([C@]2(CCN(Cc3ccc(O[C@H]4CC[C@H](CS(C)(=N)=O)CC4)cc3)C(=O)C(C)(C)C(F)F)CCOC(C)(C)C2)cc1 (single isomer, unassigned) [Example U11, 3,3-Difluoro-N-{2-[(4R)-4-(4-methoxyphenyl)-2,2-dimethyltetrahydro-2H-pyran-4-yl]ethyl}-2,2-dimethyl-N-{4-[(trans-4-{[(R) or (S)—S-methylsulfonimidoyl]methyl}cyclohexyl)oxy]benzyl}propanamide]
2.8	4.3	3.9	18	13	COc1ccc([C@]2(CCN(Cc3ccc(O[C@H]4CC[C@H](C(=O)O)CC4)cc3)CC(C)(C)C(F)(F)F)CCOC(C)(C)C2)cc1 [Example M5, Trans-4-(4-{[{2-[(4R)-4-(4-methoxyphenyl)-2,2-dimethyltetrahydro-2H-pyran-4-yl]ethyl)(3,3,3-trifluoro-2,2-dimethylpropyl)amino]methyl}phenoxy)cyclohexanecarboxylic acid]
25	39	37	32	80	COc1ccc(C2(CCN(Cc3ccc(O[C@H]4CC[C@H](C(=O)NS(=O)(=O)N(C)C)CC4)cc3)C(=O)C(C)(C)C)CCOC(C)(C)C2)cc1 (stereo partly drawn) [Example H1, Trans-4-(4-{[(2,2-dimethylpropanoyl) {2-[4-(4-methoxyphenyl)-2,2-dimethyltetrahydro-2H-pyran-4-yl]ethyl}amino]methyl}phenoxy)-N-(dimethylsulfamoyl)cyclohexanecarboxamide]
14	23	69	31	166	CC(C)Oc1ccc(C2(CCN(Cc3ccc(O[C@H]4CC[C@H](C(=O)O)CC4)cc3)C(=O)C(C)(C)C)CCOC(C)(C)C2)cc1 (stereo partly drawn) [Example F4, Trans-4-(4-{[(2,2-dimethylpropanoyl) (2-{2,2-dimethyl-4-[4-(propan-2-yloxy)phenyl]tetrahydro-2H-pyran-4-yl}ethyl)amino]methyl}phenoxy)cyclohexanecarboxylic acid]
19	30	39	41	113	COc1ccc(C2(CCN(Cc3ccc(Oc4ccc(N=S(C)(C)=O)cc4)cc3)C(=O)C(C)(C)C)CCOC(C)(C)C2)cc1 (stereo not shown) [Example N2]
53	78	76	29	144	COc1ccc(C2(CCN(Cc3ccc(O[C@H]4CC[C@H](C(=O)O)CC4)cc3)C(=O)C(C)(C)C)CCOC(C)(C)C2)cc1 (stereo partly drawn) [Example D3, Trans-4-(4-{[(2,2-dimethylpropanoyl){2-[4-(4-methoxyphenyl)-2,2-dimethyltetrahydro-2H-pyran-4-yl]ethyl}amino]methyl}phenoxy)cyclohexanecarboxylic acid]
9.8	21	18	–	71	COc1ccc([C@]2(CCN(Cc3ccc(C4=CC[C@H](C(=O)O)CC4)c(F)c3)CC(C)(C)C(F)(F)F)CCOC(C)(C)C2)cc1 [Example V5, (4R)-2′-Fluoro-4′-{[{2-[(4R)-4-(4-methoxyphenyl)-2,2-dimethyltetrahydro-2H-pyran-4-yl]ethyl)(3,3,3-trifluoro-2,2-dimethylpropyl)amino]methyl}-2,3,4,5-tetrahydro[biphenyl]-4-carboxylic acid monohydrochloride]
511	581	776	–	1230	COc1ccc([C@]2(CCN(Cc3ccc(C4=CC[C@H](CN5CCN(C(=O)OC(C)(C)C)CC5)CC4)cc3)CC(C)(C)C(F)(F)F)CCOC(C)(C)C2)cc1 [Example X2, tert-Butyl 4-{[(4R)-4′-{[{2-[(4R)-4-(4-methoxyphenyl)-2,2-dimethyltetrahydro-2H-pyran-4-yl]ethyl)(3,3,3-trifluoro-2,2-dimethylpropyl)amino]methyl}-2,3,4,5-tetrahydro[biphenyl]-4-yl]methyl}piperazine-1-carboxylate]
90	138	131	–	372	COc1ccc([C@]2(CCN(Cc3ccc(C4=CC[C@H](CO)CC4)cc3)CC(C)(C)C(F)(F)F)CCOC(C)(C)C2)cc1 [Example W5, [(4R)-4′-{[{2-[(4R)-4-(4-Methoxyphenyl)-2,2-dimethyltetrahydro-2H-pyran-4-yl]ethyl)(3,3,3-trifluoro-2,2-dimethylpropyl)amino]methyl}-2,3,4,5-tetrahydro[biphenyl]-4-yl]methanol]
